Some test systems named below: BT-549; COLO 205; EKVX; HCT-15; HL-60; HOP-92; IGROV-1; K562; MDA-MB-435; NCI-H23; NCI/ADR-RES; RPMI-8226; RXF 393; SF-268; SK-MEL-2; SK-MEL-5; T47D; TK-10; UACC-257; UACC-62.
Holding throughout (assay): NCI anticancer screen, dose series, 48 h

Ten molecules from ChEMBL document CHEMBL1201862, “PubChem BioAssay data set” (2004) can be followed below.

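Assay format: 96-well plates, 48-hour exposure. GI50 = concentration required for 50% inhibition of growth.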 Active and inactive are the calls of the source. Cut-off read from the data, not from the text of the source: active = GI50 up to about 1.1 µM and inactive = higher. Residues, ends and D or L forms follow the SMILES beside them. *: point of attachment. Fmoc = O=C(OCC1c2ccccc2-c2ccccc21)*; Boc = CC(C)(C)OC(=O)*

Take `Cc1cc(SCC(=O)c2ccccc2)nc2ccccc12`: the GI50 in the assay with BT-549 was > 100 µM (inactive); in the assay with COLO 205, > 100 µM (inactive); in the assay with EKVX, 8.11 µM (inactive); in the assay with HCT-15, over 100 µM; in the assay with HL-60, > 100 µM (inactive); in the assay on HOP-92 it was > 100 µM (inactive). The GI50 in the assay on IGROV-1, in the assay on K562, in the assay on MDA-MB-435, in the assay on NCI-H23, in the assay on NCI/ADR-RES and in the assay on RPMI-8226 was > 100 µM (inactive) each time. The GI50 was > 100 µM (inactive) in the assay with RXF 393; 55.8 µM (inactive) in the assay with SF-268; > 100 µM (inactive) in the assay on SK-MEL-2; > 100 µM (inactive) with SK-MEL-5; > 100 µM (inactive) in the assay on T47D; > 100 µM (inactive) in the assay with TK-10. The GI50 in the assay with UACC-257 and with UACC-62 was > 100 µM (inactive) throughout.

Consider `CC(NNC(=O)c1ccncc1)c1ccc(Cl)c(Cl)c1` (stereo not given), for which the GI50 was > 100 µM (inactive) with BT-549; > 100 µM (inactive) with COLO 205; > 100 µM (inactive) with EKVX; over 100 µM with HCT-15; 34.8 µM (inactive) in the assay with HL-60; > 100 µM (inactive) in the assay on HOP-92. Further, the GI50 is > 100 µM (inactive) in the assay with IGROV-1; 38.4 µM (inactive) in the assay with K562; > 100 µM (inactive) in the assay with MDA-MB-435; 57.7 µM (inactive) with NCI-H23; > 100 µM (inactive) in the assay with NCI/ADR-RES; 75.5 µM (inactive) in the assay with RPMI-8226. Further, the GI50 with RXF 393 is > 100 µM (inactive); with SF-268 it was > 100 µM (inactive); with SK-MEL-2 it was > 100 µM (inactive); in the assay on SK-MEL-5 it was > 100 µM (inactive); in the assay on T47D, 66.4 µM (inactive); in the assay on TK-10 it was > 100 µM (inactive). For the same molecule, the GI50 in the assay on UACC-257 and in the assay with UACC-62 was > 100 µM (inactive) throughout.

Turning to `C[C@]12CC[C@H]3[C@@H](CCC4=CC(=O)CC[C@@H]43)[C@@H]1CC[C@]2(O)C(N)=O`, the GI50 in the assay on BT-549 was > 100 µM (inactive); in the assay on COLO 205 it was > 100 µM (inactive); in the assay with EKVX it was > 100 µM (inactive); in the assay with HCT-15, over 100 µM; with HL-60 it was > 100 µM (inactive); in the assay with HOP-92, > 100 µM (inactive). The GI50 with IGROV-1, in the assay with K562, with MDA-MB-435, in the assay with NCI-H23, in the assay with NCI/ADR-RES and with RPMI-8226 was > 100 µM (inactive) throughout. The GI50 in the assay with RXF 393, in the assay with SF-268, in the assay on SK-MEL-2, with SK-MEL-5, in the assay with T47D and in the assay with TK-10 was > 100 µM (inactive) in each case. Moreover, the GI50 in the assay on UACC-257 and in the assay on UACC-62 was > 100 µM (inactive) throughout.

In the case of `CC1=NN(C(=O)CC(=O)Nc2ccc(Cl)cc2)C(=O)C1/N=N\c1ccc(S(=O)(=O)c2ccc(/N=N/C3C(=O)N(C(=O)CC(=O)Nc4ccc(Cl)cc4)N=C3C)cc2)cc1` (stereo not given), the GI50 is > 100 µM (inactive) in the assay with BT-549; > 100 µM (inactive) in the assay with COLO 205; > 100 µM (inactive) with EKVX; 60.8 µM in the assay with HCT-15; > 100 µM (inactive) in the assay with HL-60; > 100 µM (inactive) in the assay with HOP-92. Moreover, the GI50 in the assay with IGROV-1 was > 100 µM (inactive); in the assay with K562, 77.1 µM (inactive); in the assay on MDA-MB-435, > 100 µM (inactive); in the assay on NCI-H23, > 100 µM (inactive); with NCI/ADR-RES it was > 100 µM (inactive); in the assay on RPMI-8226 it was > 100 µM (inactive). Moreover, the GI50 is 41.5 µM (inactive) in the assay with RXF 393; > 100 µM (inactive) in the assay with SF-268; 51.9 µM (inactive) in the assay on SK-MEL-2; 95.7 µM (inactive) in the assay with SK-MEL-5; > 100 µM (inactive) in the assay with T47D; 35.7 µM (inactive) with TK-10. The GI50 in the assay with UACC-257 and in the assay with UACC-62 was > 100 µM (inactive) throughout.

With `O=[N+]([O-])c1ccc2c(c1)/C(=N/N=C1c3ccccc3Cc3ccccc31)c1cc([N+](=O)[O-])cc([N+](=O)[O-])c1-2`, the GI50 in the assay on BT-549 was 1.52 µM (inactive); with COLO 205, 3.21 µM (inactive); with EKVX it was 5.12 µM (inactive); in the assay with HCT-15 it was 2.14 µM; with HL-60 it was 2.26 µM (inactive); in the assay on HOP-92, 2.17 µM (inactive). Besides, the GI50 with IGROV-1 is 1.55 µM (inactive); with K562 it was 3.7 µM (inactive); in the assay on MDA-MB-435 it was 1.79 µM (inactive); with NCI-H23, 1.96 µM (inactive); in the assay on NCI/ADR-RES, 2.19 µM (inactive); with RPMI-8226 it was 4.39 µM (inactive). Also, the GI50 in the assay on RXF 393 was 2.61 µM (inactive); with SF-268, 2.51 µM (inactive); with SK-MEL-2, 9.18 µM (inactive); in the assay with SK-MEL-5, 4.42 µM (inactive); with T47D, 1.78 µM (inactive); with TK-10, 4.29 µM (inactive). For the same molecule, the GI50 in the assay on UACC-257 is 2.08 µM (inactive); in the assay on UACC-62, 2.62 µM (inactive).

Regarding `O=C1CC(c2ccccc2Cl)C2(C(=O)NC(=S)NC2=O)C(c2ccccc2Cl)C1` (stereo not given), the GI50 is 30.3 µM (inactive) with BT-549; 31.3 µM (inactive) in the assay on COLO 205; 37.6 µM (inactive) in the assay with EKVX; 21.1 µM with HCT-15; 36.5 µM (inactive) with HL-60; 0.284 µM (active) in the assay on HOP-92. For the same molecule, the GI50 with IGROV-1 is 25.9 µM (inactive); with K562, 37.2 µM (inactive); with MDA-MB-435, 14.3 µM (inactive); in the assay on NCI-H23, 16.7 µM (inactive); in the assay on NCI/ADR-RES it was 68.5 µM (inactive); in the assay on RPMI-8226 it was 34.1 µM (inactive). Moreover, the GI50 with RXF 393 is 16.9 µM (inactive); in the assay on SF-268 it was 19 µM (inactive); with SK-MEL-2 it was 37.1 µM (inactive); with SK-MEL-5, 23.9 µM (inactive); with T47D, 45.6 µM (inactive); in the assay with TK-10, 0.0302 µM (active). For the same molecule, the GI50 was 13.6 µM (inactive) in the assay on UACC-257 and 19.8 µM (inactive) with UACC-62.

As to `Cc1csc2nc(-c3cccc([N+](=O)[O-])c3)c(/C=N/N=C(N)N)n12`, the GI50 with BT-549 is 1.1 µM (active); in the assay on COLO 205 it was 1.78 µM (inactive); in the assay with EKVX it was 1.55 µM (inactive); in the assay on HCT-15 it was 1.71 µM; in the assay with HL-60 it was 1.25 µM (inactive); in the assay on HOP-92, 0.0968 µM (active). Also, the GI50 in the assay on IGROV-1 is 1.81 µM (inactive); with K562 it was 1.98 µM (inactive); in the assay with MDA-MB-435, 1.66 µM (inactive); with NCI-H23 it was 1.71 µM (inactive); with NCI/ADR-RES, 6.27 µM (inactive); in the assay on RPMI-8226, 1.86 µM (inactive). Moreover, the GI50 was 1.7 µM (inactive) in the assay with RXF 393; 1.82 µM (inactive) with SF-268; 1.77 µM (inactive) with SK-MEL-2; 1.55 µM (inactive) in the assay on SK-MEL-5; 1.87 µM (inactive) in the assay with T47D; 1.78 µM (inactive) in the assay on TK-10. Moreover, the GI50 is 1.78 µM (inactive) in the assay on UACC-257 and 1.46 µM (inactive) in the assay with UACC-62.

As for `CCN(C)c1nc(N(C)CC)c2nc(N(C)CC)nc(N(C)CC)c2n1`, the GI50 with BT-549 was > 100 µM (inactive); in the assay on COLO 205 it was > 100 µM (inactive); with EKVX, > 100 µM (inactive); with HCT-15 it was over 100 µM; in the assay with HL-60, > 100 µM (inactive); in the assay on HOP-92 it was > 100 µM (inactive). The GI50 in the assay on IGROV-1, with K562, with MDA-MB-435, in the assay on NCI-H23, in the assay with NCI/ADR-RES and in the assay on RPMI-8226 was > 100 µM (inactive) throughout. In addition, the GI50 with RXF 393, with SF-268, in the assay with SK-MEL-2, with SK-MEL-5, in the assay with T47D and with TK-10 was > 100 µM (inactive) each time. For the same molecule, the GI50 with UACC-257 and in the assay with UACC-62 was > 100 µM (inactive) throughout.

Consider `O=C1NC(Cc2c[nH]c3ccccc23)C(=O)N2C(c3ccccc3)c3[nH]c4ccccc4c3C[C@@H]12` (stereo not given in full), for which the GI50 is 21.1 µM (inactive) in the assay with BT-549; 21.1 µM (inactive) in the assay with COLO 205; 22.5 µM (inactive) in the assay on EKVX; 21.7 µM in the assay with HCT-15; 20.5 µM (inactive) with HL-60; 25.1 µM (inactive) in the assay with HOP-92. For the same molecule, the GI50 with IGROV-1 is 22.2 µM (inactive); with K562, 21 µM (inactive); in the assay on MDA-MB-435, 18.8 µM (inactive); with NCI-H23, 27.7 µM (inactive); with NCI/ADR-RES, 21.6 µM (inactive); in the assay with RPMI-8226, 20 µM (inactive). The GI50 in the assay with RXF 393 was 16 µM (inactive); with SF-268 it was 26.1 µM (inactive); with SK-MEL-2 it was 23.8 µM (inactive); in the assay with SK-MEL-5 it was 17.5 µM (inactive); in the assay on T47D, 24.4 µM (inactive); in the assay on TK-10 it was 26.9 µM (inactive). Besides, the values for the GI50 in the assay on UACC-257 and in the assay on UACC-62 were 25.4 µM (inactive) and 17.2 µM (inactive), respectively.

Turning to `CC(C)(C)OC(=O)NCCCCC(NC(=O)C(Cc1c[nH]c2ccccc12)NC(=O)OCC1c2ccccc2-c2ccccc21)C(=O)N1CCCC1C(=O)NCC(N)=O` (stereo not given) (Fmoc-WK(Boc)PG-NH2; configuration not given here), the GI50 in the assay on BT-549 is > 100 µM (inactive); with COLO 205, > 100 µM (inactive); with EKVX, > 100 µM (inactive); with HCT-15, over 100 µM; with HL-60, > 100 µM (inactive); in the assay on HOP-92, > 100 µM (inactive). The GI50 in the assay with IGROV-1, with K562, with MDA-MB-435, in the assay on NCI-H23, in the assay on NCI/ADR-RES and in the assay on RPMI-8226 was > 100 µM (inactive) each time. The GI50 in the assay on RXF 393, in the assay on SF-268, in the assay on SK-MEL-2, with SK-MEL-5, with T47D and in the assay with TK-10 was > 100 µM (inactive) throughout. The GI50 in the assay with UACC-257 and in the assay with UACC-62 was > 100 µM (inactive) in each case.
